Reference: publication PMC12587552, “A nitrogen-containing diphyllin derivative C156-P1 exhibited broad-spectrum antiviral activity against Flaviviridae viruses by preventing endosomal acidification” (Antimicrobial Agents and Chemotherapy, 2025)
Like-named read-outs stand apart in the source and are kept apart here.

Columns and labels:
[1] = test system: endosomal acidification in A549 cells; test: Endosomal acidification, LysoSensor DND-189 flow cytometry; format: cell-based, human
JEV = test: organism not typed; format: cell-based, JEV strain SA14-14-2; conditions: read-out: EC50 against JEV
DENV-2 [2] = conditions: for SI (ratio of CC50 to EC50): DENV-2
DENV-2 [3] = test: Time-of-drug-addition assay; format: cell-based, DENV-2 strain 16681; conditions: A549 cells, DENV-2 MOI 2, 50 nM, 48 hpi
V-ATPase = V-ATPase (Homo sapiens, UniProt Q9Y487); test: ATPase activity assay on lysate of treated cells; format: cell-based; conditions: A549 cells treated 24 h; C156-P1 100 nM or 1000 nM, PHY34 100 nM, Baf-A1 100 nM; 2 µg total cell protein
Chain of V-ATPase (Q9Y487 whole entry, looked up): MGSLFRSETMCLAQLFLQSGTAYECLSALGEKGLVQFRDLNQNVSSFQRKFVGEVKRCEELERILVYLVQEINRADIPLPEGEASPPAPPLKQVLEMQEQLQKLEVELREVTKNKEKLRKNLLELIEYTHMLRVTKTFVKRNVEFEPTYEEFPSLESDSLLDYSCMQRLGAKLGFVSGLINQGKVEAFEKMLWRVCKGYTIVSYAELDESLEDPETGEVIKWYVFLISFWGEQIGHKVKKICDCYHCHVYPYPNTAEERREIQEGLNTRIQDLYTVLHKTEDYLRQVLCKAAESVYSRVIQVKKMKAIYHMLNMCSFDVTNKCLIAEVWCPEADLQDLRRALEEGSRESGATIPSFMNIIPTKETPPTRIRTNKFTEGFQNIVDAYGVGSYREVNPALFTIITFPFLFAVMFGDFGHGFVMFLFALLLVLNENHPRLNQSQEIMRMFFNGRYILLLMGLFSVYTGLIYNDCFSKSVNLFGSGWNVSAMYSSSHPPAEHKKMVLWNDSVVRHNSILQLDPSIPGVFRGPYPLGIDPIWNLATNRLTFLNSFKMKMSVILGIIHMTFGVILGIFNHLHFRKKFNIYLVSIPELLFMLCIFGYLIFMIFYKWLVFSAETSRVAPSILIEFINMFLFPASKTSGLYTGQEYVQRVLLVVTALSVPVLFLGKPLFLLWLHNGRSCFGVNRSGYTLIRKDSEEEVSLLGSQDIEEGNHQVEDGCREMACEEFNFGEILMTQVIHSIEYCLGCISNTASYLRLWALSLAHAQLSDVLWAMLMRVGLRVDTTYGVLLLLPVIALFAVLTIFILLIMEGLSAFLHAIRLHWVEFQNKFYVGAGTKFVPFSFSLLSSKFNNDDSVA

IFN-I response / TLR3 = format: cell-based, human; conditions: A549 cells, DENV-2 MOI = 2, 50 nM, 12-48 hpi
Method: Fig 6 C156-P1 restricted DENV-2 release from the endosome into the cytoplasm by suppressing the ATP6V0A2 protein. (A and C) A549 cells were infected with DENV-2 (MOI = 2) and treated with C156-P1 (50 nM), and the cells were harvested at 12, 24, 36, and 48 hpi. The mRNA levels of IFNB1, IFIT1, ISG15, OAS1, and TLR3 were quantitated by RT-qPCR. (B) A549 cells were infected with DENV-2 (MOI = 2) and incubated with C156-P1 (50 nM) for 24 h, after which the cell lysates were analyzed by Western blot (left panel), and band density analysis was performed (right panel). […] The intensity of FITC staining was determined using a CytoFLEX flow cytometer (left panel), and the mean fluorescence intensity (MFI) was calculated (right panel). […] The colocalization of E and Rab7A proteins was analyzed using Pearson’s correlation coefficients with the JACoP plugin for ImageJ software. […] (F) A549 cells were treated with DMSO, C156-P1 (100 nM), or PHY34 (100 nM) for 48 h, and ATP6V0A2 mRNA levels were quantified by RT-qPCR. […] The intensity of FITC staining was determined by a flow cytometer (left panel), and the MFI was calculated (right panel). […] The DENV-2 NS3 protein was determined by Western blot. […] The levels of ATP6V0A2 mRNA, intracellular viral RNA, DENV-2 NS3 protein, and extracellular virus titer were assessed at 48 hpi. […]

DENV-3 = test: microbe, parasite or virus in culture; format: cell-based, DENV-3 clone DV3syn_4M; conditions: Dengue virus, read-out: EC50 against DENV-3
HCV = test: microbe, parasite or virus in culture; format: cell-based, hepatitis C virus genotype 2a JFH1; conditions: Hepatitis C virus, Huh-7, 72 h, read-out: EC50 against HCV
DENV-2 [4] = test: microbe, parasite or virus in culture; conditions: Dengue virus
Ad5-eGFP = format: cell-based, adenovirus type 5
DENV-2 [5] = test: DENV-2 infection in AG129 mice; format: in vivo; conditions: 0.2 mg/kg i.p.
DENV-2 [6] = test: Colocalization of DENV E protein and Rab7A, confocal microscopy; format: cell-based, DENV-2 strain 16681; conditions: A549 cells, DENV-2 MOI = 20, 50 nM, 12 h
YFV = test: microbe, parasite or virus in culture; format: cell-based, YFV vaccine strain 17D; conditions: Yellow fever virus, read-out: EC50 against YFV

SMILES: COc1cc2c(OCC#N)c3c(c(-c4ccc5c(c4)OCO5)c2cc1OC)C(=O)OC3 [Compound C156-P1]
- Endosomal acidification (FITC intensity of LysoSensor DND-189) [1]: significantly decreased the MFI of FITC in a dose-dependent manner
- EC50 (JEV; A549, 48 h): 2.63 nM
- EC50 (JEV; Vero, 48 h): 2.84 nM
- SI (ratio of CC50 to EC50) (DENV-2 [2]; A549 cells): 292.65
- Extracellular DENV-2 viral titers versus DMSO (DENV-2 [2]; A549 cells, MOI = 2, 50 nM, 24, 36, and 48 hpi, focus-forming assay): significantly decreased
- DENV-2 infection (NS3 protein, Western blot) (DENV-2 [2]; A549 cells, MOI = 2, 48 h, indicated concentrations): decreased with increasing concentrations of C156-P1
- SI (ratio of CC50 to EC50) (DENV-2 [2]; HUVEC cells): 142.42
- SI (ratio of CC50 to EC50) (DENV-2 [2]; Huh7 cells): 110.09
- SI (ratio of CC50 to EC50) (DENV-2 [2]; Vero cells): 113.94
- Intracellular viral RNA, NS3 protein and extracellular titers, before-, during- and after-incubation groups versus DMSO (DENV-2 [3]): significantly reduced levels
- V-ATPase activity (V-ATPase): significantly reduced V-ATPase activity
- TLR3 mRNA expression induced by DENV-2 (IFN-I response / TLR3): significantly reduced the expression of TLR3 mRNA
- mRNA levels of IFNB1 and ISGs (IFIT1, ISG15, OAS1) induced by DENV-2 (IFN-I response / TLR3): apparently suppressed
- EC50 (DENV-3; DENV3, A549, 48 h): 4.84 nM
- EC50 (DENV-3; DENV3, Vero, 48 h): 4.93 nM
- EC50 (HCV): 5.13 nM
- EC50 (DENV-2 [4]; DENV2, A549, 48 h, read-out: EC50 against DENV-2): 1.36 nM
- EC50 (DENV-2 [4]; DENV2, HUVEC, 48 h, read-out: EC50 against DENV-2): 1.28 nM
- EC50 (DENV-2 [4]; DENV2, Huh-7, 48 h, read-out: EC50 against DENV-2): 4.45 nM
- EC50 (DENV-2 [4]; DENV2, Vero, 48 h, read-out: EC50 against DENV-2): 3.78 nM
- EC50 (DENV-2 [4]; DENV2, read-out: EC50 against DENV-2, bound stated in text): < 5 nM
- Mean fluorescence intensity (MFI) of Ad5-eGFP within the cells (Ad5-eGFP): slightly increased
- Number of Ad5-eGFP-positive cells versus DMSO (Ad5-eGFP): no significant difference
- Body weight of DENV-2-infected mice (DENV-2 [5]): mitigated the decline in body weight
- DENV-2 RNA load in blood (DENV-2 [5]; days 3, 5, and 7 post-infection, RT-qPCR): markedly decreased DENV-2 in the blood
- Survival rate (DENV-2 [5]; DENV-2 1 × 10^6 PFU i.p., until day 15): 60%
- Colocalization between DENV E protein and Rab7A (DENV-2 [6]): significantly enhanced the colocalization between DENV E protein and Rab7A
- EC50 (YFV; A549, 48 h): 5.54 nM
- EC50 (YFV; Vero, 48 h): 3.94 nM
